Drawing on the Deep4Chem optical property database, this text covers fluorescence lifetime for 22 compounds.

Molecules are shown by their SMILES.

A short description of this data set: solvent given as SMILES.

On to `CC1=C(c2ccccc2)C(C)=[N+]2C1=C(c1ccccc1)c1c(C)c(-c3ccccc3)c(C)n1[B-]2(F)F`, for which the fluorescence lifetime (in Cc1ccccc1) came to 4.1 ns.

For `Cc1ccc(N(c2ccc(C)cc2)c2ccc(-c3ccc4c(c3)C(=O)c3ccccc3C4=O)cc2)cc1`, the fluorescence lifetime is, setting by setting: (in CCCCCC) 6.89 ns; (in CCOCC) 1.27 ns; (in Cc1ccccc1) 5.75 ns; (in ClC(Cl)(Cl)Cl) 9.25 ns.

For `CC(C)(C)N1C(=O)c2c(cc3ccc4cccc5ccc2c3c45)C1O` (stereo not drawn), the fluorescence lifetime (in ClC(Cl)Cl) worked out at 4.93 ns.

Compound `CN(C)c1ccc2nc(-c3ccccc3)sc2c1Cl` yielded a fluorescence lifetime (in C1CCCCC1) of 0.1 ns.

Consider `CN(C)c1ccc(/C=C/C=C/c2ccc(C#N)cc2)cc1`, for which the fluorescence lifetime amounted to 0.35 ns (in C1CCOC1); 0.56 ns (in CC#N); 0.28 ns (in CCCCCC); 0.28 ns (in CCCCOCCCC); 0.51 ns (in CCO); 0.32 ns (in CCOCC).

Turning to `CCN(CC)c1ccc2cc(-c3ccc(-c4c5ccccc5c(-c5ccc(-c6cc7ccc(N(CC)CC)cc7oc6=O)cc5)c5ccccc45)cc3)c(=O)oc2c1`, the fluorescence lifetime (in ClC(Cl)Cl) came to 8.9 ns.

Consider `Nc1cccc[nH+]1`, for which the fluorescence lifetime (in O) came to 11.2 ns.

In the case of `C(=C\c1nc2ccccc2s1)/c1ccccc1`, the fluorescence lifetime (in C1CCCCC1) worked out at 0.17 ns.

For the setting “in C1CCOC1”, `CCN(CC)c1ccc(-c2nc3c(nc2-c2ccc(B(c4c(C)cc(C)cc4C)c4c(C)cc(C)cc4C)cc2)c2ccccc2n3C)cc1` registered a fluorescence lifetime of 2.33 ns.

The compound `O=P1(c2ccccc2)c2cc(N3c4ccccc4Oc4ccccc43)ccc2-c2ccc(N3c4ccccc4Oc4ccccc43)cc21` gave a fluorescence lifetime (in c1ccc2c(c1)c1ccccc1n2-c1ccc(-c2ccc(-n3c4ccccc4c4ccccc43)cc2)cc1) of 23.7 ns.

Turning to `CCCCN1C(=O)c2cc(Oc3ccc(C(C)(C)C)cc3)c3c4c(Oc5ccc(C(C)(C)C)cc5)cc5c(=O)[nH]/c(=C\c6ccccn6)c6cc(Oc7ccc(C(C)(C)C)cc7)c(c7c(Oc8ccc(C(C)(C)C)cc8)cc(c2c37)C1=O)c4c56`, the fluorescence lifetime runs as follows: (in C1CCOC1) 3.33 ns; (in Cc1ccccc1) 3.57 ns; (in ClCCl) 4.05 ns.

For the compound `COc1cc(OC)c2c(c1)C(=O)c1ccc(OC)cc1-2`, the fluorescence lifetime is 4.4 ns (in C1CCCCC1) and 1.2 ns (in CC#N).

Where the note is “in CCO”, `Cc1cc(-c2nnc(-c3c(C(C)C)cc(C(C)C)cc3C(C)C)o2)ccc1-n1c2ccccc2c2ccccc21` displayed a fluorescence lifetime of 1.49 ns.

`CC1=CC(C)=[N+]2C1=Cc1cccn1[B-]2(F)F`: the fluorescence lifetime by setting is: (in CCCCCC) 6.21 ns; (in CO) 6.34 ns; (in ClCCl) 5.89 ns.

Consider `CC(C)(C)C1Nc2ccccc2C(=O)N1Cc1ccccc1` (stereo not drawn), for which the fluorescence lifetime by setting is: (in CC#N) 2.43 ns; (in CCCCCCCCCCCCCCCC) 4.97 ns; (in CO) 5.24 ns; (in ClC(Cl)Cl) 5.86 ns; (in c1ccccc1) 5.11 ns.

For the setting “in ClCCl”, `COc1ccc(-c2cc3c(s2)c(C(=O)c2ccccc2)cc(=O)n3Cc2ccccc2)cc1` yielded a fluorescence lifetime of 5.3 ns.

In the case of `Nc1ccc2c(c1)Cc1ccccc1-2`, the fluorescence lifetime runs as follows: (in C1CCCCC1) 5.3 ns; (in CC#N) 3.2 ns; (in CO) 4.5 ns; (in O) 2.1 ns.

For `Cc1ccc2c(c1)C(c1ccccc1)(c1ccccc1)c1cc(C)ccc1N2c1cc(C(C)C)c(B2c3ccccc3Sc3ccccc32)c(C(C)C)c1`, the fluorescence lifetime is, setting by setting: (in Cc1ccccc1) 47 ns; (in O=P(c1ccccc1)(c1ccccc1)c1ccc2oc3ccc(P(=O)(c4ccccc4)c4ccccc4)cc3c2c1) 21 ns.

On to `CCN(CC)c1ccc2c(c1)oc(=O)c1c(C)nc3c(cnn3-c3ccccc3)c12`, for which the fluorescence lifetime (in ClCCl) was determined as 2.72 ns.

`Cc1ccc2c(c1)B(c1c(C(C)C)cc(C(C)C)cc1C(C)C)c1cc(C)cc3c1N2c1ccc(C)cc1B3c1c(C(C)C)cc(C(C)C)cc1C(C)C`: the fluorescence lifetime (in Cc1ccccc1-c1cccc(Oc2cc3c4c(c2)Oc2cc(-c5ccccc5C)ccc2B4c2ccc(-c4ccccc4C)cc2O3)c1) stood at 6.01 ns.

Take `c1ccc([B-]2(c3ccccc3)Oc3ccc4ccccc4c3-c3c4ccccc4cn[n+]32)cc1`: the fluorescence lifetime (in Cc1ccccc1) is 9.32 ns.

`Cn1c2ccc(S(=O)(=O)Cl)cc2c(=O)c2cc(S(=O)(=O)Cl)ccc21` yielded a fluorescence lifetime (in CS(C)=O) of 10.6 ns.
